Laboratory results from the supplement of paper PMC11451515.

How the values were obtained:
Details in all cases: 48 h
NOMO1 [1] = experiment: cell viability relative to DMSO control; higher = less cytotoxic
Summary of the method: (§1)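 Viability is a per-plate percentage relative to DMSO wells, with cell-free wells as background. CellTiter-Glo One luminescence was read after 48 h at 37°C on 1536-well plates (5 μl) of NOMO1 or SEM (500 cells/well) or P12-Ichikawa (1000 cells/well) leukemia cells. The cells had been adapted for at least four passages in each medium and pin-dosed with library compounds in DMSO from 47 μM to 0.79 nM in 11 threefold steps.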

SEM cells [2] = experiment: as above
Summary of the method: as §1

P12-Ichikawa [3] = experiment: as above
Summary of the method: as §1

NOMO1 [4] = experiment: AUC of viability dose-response curve (% viability x log10 dose units); higher = less sensitive
Summary of the method: (§2)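 Leukemia cells adapted to each medium were seeded in 1536-well plates (500 or 1000 cells/well). They were dosed with library compounds in DMSO at 11 threefold doses, 47 μM to 0.79 nM, for 48 h at 37°C. CellTiter-Glo One luminescence was normalised per plate to DMSO and cell-free wells. Area under the curve was integrated by trapezoidal rule over log10 doses on a four-parameter log-logistic fit; curves exceeding full viability were scaled and curves failing quality control removed.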

SEM cells [5] = experiment: as above
Summary of the method: as §2

P12-Ichikawa [6] = experiment: as above
Summary of the method: as §2

O=C1[O][Pt]2([NH]C3CCCCC3[NH]2)[O]C1=O (configuration not stated)
cell viability [%]
Details | NOMO1 [1] | P12-Ichikawa [3] | SEM cells [2]
HPLM + 10% dialyzed FBS, 0.000781 µM | 116 | 19.4 | 95.9
HPLM + 10% dialyzed FBS, 0.00234 µM | 118 | 112 | 110
HPLM + 10% dialyzed FBS, 0.00702 µM | 119 | 115 | 102
HPLM + 10% dialyzed FBS, 0.0211 µM | 107 | 111 | 107
HPLM + 10% dialyzed FBS, 0.0632 µM | 141 | 118 | 105
HPLM + 10% dialyzed FBS, 0.19 µM | 118 | 113 | 108
HPLM + 10% dialyzed FBS, 0.569 µM | 131 | 118 | 101
HPLM + 10% dialyzed FBS, 1.71 µM | 120 | 114 | 91.5
HPLM + 10% dialyzed FBS, 5.12 µM | 90.2 | 62.4 | 27
HPLM + 10% dialyzed FBS, 15.4 µM | 14.7 | 2.95 | 3.68
HPLM + 10% dialyzed FBS, 46.1 µM | 7.1 | 3.39 | 4.13
RPMI 5 mM glucose + 10% FBS, 0.000781 µM | 108 | 106 | 74
RPMI 5 mM glucose + 10% FBS, 0.00234 µM | 103 | 109 | 77.5
RPMI 5 mM glucose + 10% FBS, 0.00702 µM | 120 | 106 | 69
RPMI 5 mM glucose + 10% FBS, 0.0211 µM | 119 | 118 | 66.6
RPMI 5 mM glucose + 10% FBS, 0.0632 µM | 110 | 115 | 83.8
RPMI 5 mM glucose + 10% FBS, 0.19 µM | 135 | 123 | 84
RPMI 5 mM glucose + 10% FBS, 0.569 µM | 115 | 128 | 81.7
RPMI 5 mM glucose + 10% FBS, 1.71 µM | 107 | 117 | 60.3
RPMI 5 mM glucose + 10% FBS, 5.12 µM | 90.4 | 70 | 15
RPMI 5 mM glucose + 10% FBS, 15.4 µM | 17.6 | 3.56 | 2.66
RPMI 5 mM glucose + 10% FBS, 46.1 µM | 5.82 | 2.67 | 2.68
RPMI 5 mM glucose + 10% dialyzed FBS, 0.000781 µM | 107 | 111 | 84.7
RPMI 5 mM glucose + 10% dialyzed FBS, 0.00234 µM | 108 | 115 | 97.5
RPMI 5 mM glucose + 10% dialyzed FBS, 0.00702 µM | 100 | 121 | 104
RPMI 5 mM glucose + 10% dialyzed FBS, 0.0211 µM | 110 | 119 | 114
RPMI 5 mM glucose + 10% dialyzed FBS, 0.0632 µM | 109 | 119 | 108
RPMI 5 mM glucose + 10% dialyzed FBS, 0.19 µM | 122 | 113 | 102
RPMI 5 mM glucose + 10% dialyzed FBS, 0.569 µM | 108 | 114 | 118
RPMI 5 mM glucose + 10% dialyzed FBS, 1.71 µM | 112 | 113 | 91.3
RPMI 5 mM glucose + 10% dialyzed FBS, 5.12 µM | 98.4 | 79 | 42.6
RPMI 5 mM glucose + 10% dialyzed FBS, 15.4 µM | 38.3 | 7.33 | 3.5
RPMI 5 mM glucose + 10% dialyzed FBS, 46.1 µM | 9.17 | 2.85 | 3.34

NOMO1 [4]
Details | AUC of viability dose-response curve
HPLM + 10% dialyzed FBS | 400
RPMI 5 mM glucose + 10% FBS | 403
RPMI 5 mM glucose + 10% dialyzed FBS | 419

CN[C@@H]1CN(C[C@H]1OC)C2=NC3=C(C=C2)C(=O)C(=C\N3C4=NC=CS4)/C(O)=O
AUC of viability dose-response curve
Details | NOMO1 [4] | P12-Ichikawa [6] | SEM cells [5]
HPLM + 10% dialyzed FBS | 454 | 426 | 396
RPMI 5 mM glucose + 10% FBS | 455 | 386 | 347
RPMI 5 mM glucose + 10% dialyzed FBS | 451 | 389 | 363

CCC(=O)O[C@@]1([C@H](C)C[C@H]2[C@@H]3C[C@H](F)\C4=C\C(=O)\C=C/[C@]4(C)[C@@]3(F)[C@@H](O)C[C@]12C)C(=O)SCF
cell viability [%]
Details | HPLM + 10% dialyzed FBS | RPMI 5 mM glucose + 10% FBS | RPMI 5 mM glucose + 10% dialyzed FBS
P12-Ichikawa [3], 0.000781 µM | 101 | 120 | 95.9
P12-Ichikawa [3], 0.00234 µM | 112 | 119 | 100
P12-Ichikawa [3], 0.00702 µM | 88 | 86.3 | 71.3
P12-Ichikawa [3], 0.0211 µM | 75.6 | 76.5 | 55.5
P12-Ichikawa [3], 0.0632 µM | 69.2 | 74.7 | 54.4
P12-Ichikawa [3], 0.19 µM | 64.8 | 68.8 | 55.1
P12-Ichikawa [3], 0.569 µM | 70.6 | 68.2 | 53.6
P12-Ichikawa [3], 1.71 µM | 71.5 | 58.9 | 49.6
P12-Ichikawa [3], 5.12 µM | 65.9 | 59.2 | 51.1
P12-Ichikawa [3], 15.4 µM | 69.8 | 55.1 | 48.6
P12-Ichikawa [3], 46.1 µM | 66.2 | 59.9 | 46.7
SEM cells [2], 0.000781 µM | 96.6 | 94.2 | 98.1
SEM cells [2], 0.00234 µM | 102 | 103 | 124
SEM cells [2], 0.00702 µM | 94.7 | 88.6 | 83.6
SEM cells [2], 0.0211 µM | 68 | 67.8 | 73.5
SEM cells [2], 0.0632 µM | 60.6 | 53.2 | 40.5
SEM cells [2], 0.19 µM | 13.1 | 13.1 | 11.7
SEM cells [2], 0.569 µM | 66.1 | 68.6 | 58.8
SEM cells [2], 1.71 µM | 79.4 | 73 | 63.4
SEM cells [2], 5.12 µM | 64.9 | 68.6 | 60.6
SEM cells [2], 15.4 µM | 61.9 | 59.5 | 53.3
SEM cells [2], 46.1 µM | 58 | 59.6 | 53.4

AUC of viability dose-response curve
Details | NOMO1 [4] | P12-Ichikawa [6] | SEM cells [5]
HPLM + 10% dialyzed FBS | 455 | 342 | 328
RPMI 5 mM glucose + 10% FBS | 465 | 292 | 325
RPMI 5 mM glucose + 10% dialyzed FBS | 439 | 290 | 280

CC(C)(C)C1=NC2=C([NH]1)C3=CC=C(F)C=C3C4=C2\C=C/NC4=O
cell viability [%]
Details | P12-Ichikawa [3] | SEM cells [2]
HPLM + 10% dialyzed FBS, 0.000781 µM | – | 118
HPLM + 10% dialyzed FBS, 0.00234 µM | – | 114
HPLM + 10% dialyzed FBS, 0.00702 µM | – | 130
HPLM + 10% dialyzed FBS, 0.0211 µM | – | 130
HPLM + 10% dialyzed FBS, 0.0632 µM | – | 125
HPLM + 10% dialyzed FBS, 0.19 µM | – | 116
HPLM + 10% dialyzed FBS, 0.569 µM | – | 111
HPLM + 10% dialyzed FBS, 1.71 µM | – | 89
HPLM + 10% dialyzed FBS, 5.12 µM | – | 38.8
HPLM + 10% dialyzed FBS, 15.4 µM | – | 32.1
HPLM + 10% dialyzed FBS, 46.1 µM | – | 50.1
RPMI 5 mM glucose + 10% FBS, 0.000781 µM | 118 | 96.8
RPMI 5 mM glucose + 10% FBS, 0.00234 µM | 133 | 116
RPMI 5 mM glucose + 10% FBS, 0.00702 µM | 123 | 141
RPMI 5 mM glucose + 10% FBS, 0.0211 µM | 134 | 115
RPMI 5 mM glucose + 10% FBS, 0.0632 µM | 123 | 126
RPMI 5 mM glucose + 10% FBS, 0.19 µM | 122 | 138
RPMI 5 mM glucose + 10% FBS, 0.569 µM | 113 | 114
RPMI 5 mM glucose + 10% FBS, 1.71 µM | 108 | 98.6
RPMI 5 mM glucose + 10% FBS, 5.12 µM | 69.7 | 37.2
RPMI 5 mM glucose + 10% FBS, 15.4 µM | 17.8 | 18.1
RPMI 5 mM glucose + 10% FBS, 46.1 µM | 72.1 | 32.3

AUC of viability dose-response curve
Details | NOMO1 [4] | P12-Ichikawa [6] | SEM cells [5]
HPLM + 10% dialyzed FBS | 415 | 391 | 384
RPMI 5 mM glucose + 10% FBS | 412 | 404 | 378
RPMI 5 mM glucose + 10% dialyzed FBS | 408 | 408 | 384

C/C=C(/C(=C/C)c1ccc(O)cc1)c1ccc(O)cc1
AUC of viability dose-response curve
Details | NOMO1 [4] | P12-Ichikawa [6] | SEM cells [5]
HPLM + 10% dialyzed FBS | 464 | 469 | 464
RPMI 5 mM glucose + 10% FBS | 431 | 465 | 467
RPMI 5 mM glucose + 10% dialyzed FBS | 457 | 465 | 465
